From patent US4576760A, “Hydroquinone sulfate derivatives and production thereof” (Takeda Chemical Industries, Ltd., priority 1983, dated 1986)

Key:
peroxidation of lipids = test: Inhibition rate of peroxidation of lipids (method of Kornbrust and Mavis; malondialdehyde formed in homogenized rat livers with NADPH/Fe++); assay type: biochemical; conditions: homogenized livers of rats
Procedure: In accordance with the method of Kornbrust and Mavis [Mol. Pharm., 17, 400 (1980)], inhibition rate of peroxidation of lipids was determined.
Note*: Homogenized livers of rats were incubated in the presence of
NADPH/Fe^++. The amounts of malondialdehyde formed due to the
peroxidation of lipids were compared.

cAMP phosphodiesterase = test: Action of inhibiting cAMP phosphodiesterase (method of Butcher and Sutherland; inorganic phosphoric acid produced from cyclic AMP); assay type: biochemical; conditions: phosphodiesterase from beef heart and 5'-nucleotidase
Procedure: In accordance with the method of Butcher and Sutherland [J. Biol. Chem., 237, 1244 (1962)], the action of inhibiting cAMP phosphodiesterase was determined.
**Amounts of inorganic phosphoric acid produced by decomposition of cycli
AMP with phosphodiesterase from beef heart and 5nucleotidase.

Inhibition rate of phosphodiesterase (cAMP phosphodiesterase; 1 × 10^-3 M): 89% | Inhibition rate of phosphodiesterase (cAMP phosphodiesterase; 5 × 10^-4 M): 70%
Structure (SMILES): COc1c(O)c(C)c(CCCCCCCCCCO)c(OS(=O)(=O)O)c1OC [6-(10-hydroxydecyl)-2,3-dimethoxy-5-methylhydroquinone 1-sulfate]
Inhibition Rate of Peroxidation of Lipids (peroxidation of lipids; 1 × 10^-4 M): 59% | Inhibition Rate of Peroxidation of Lipids (peroxidation of lipids; 1 × 10^-5 M): 28%
